Key:
Assay type in all cases: in vivo
Avena fatua (AVEFA) [1] = experiment: Pre-emergence herbicidal action; conditions: 320 g/ha, visual scoring after about 3 weeks vs untreated controls, 100% = plants have died
Text: (§1) The abbreviations used here have the following meanings: • ABUTH Abutilon theophrasti • AMARE Amaranlhus retroflexus • CYPES Cyperus serotinus • ECHCGEchinocloa crus galli • LOLRI Lolium rigidum Gaudin • PHBPU Pharbitis purpurcum • SETVI Setaria viridis • VERPE Veronica persica • ALOMY Alopccurus myosuroides • AVEFA Avena fatua • DIGSA Digitaria sanguinalis • LOLMU Lolium multiflorum • MATIN Matricaria inodora • POLCO Polygonum convolvulus • STEME Stellaria media • VIOTR Viola tricolor
(§2) Seeds of monocotyledonous and dicotyledonous weed plants and crop plants are placed in plastic or organic plant pots and covered with soil. The compounds of the invention, formulated in the form of wettable powders (WP) or as emulsion concentrates (EC), are then applied onto the surface of the covering soil as aqueous suspension or emulsion with addition of 0.5% additive at a water application rate of 600 l/ha (converted). After the treatment, the pots are placed in a greenhouse and kept under good growth conditions for the trial plants. After about 3 weeks, the effect of the preparations is scored visually in comparison with untreated controls as percentages. For example, 100% activity=the plants have died, 0% activity=like control plants.

[2] = system: Abutilon theophrasti (ABUTH); experiment: Pre-emergence herbicidal action; conditions: 320 g/ha, visual scoring after about 3 weeks vs untreated controls, 100% = plants have died
Text: as §1, §2

[3] = system: Amaranthus retroflexus (AMARE); experiment: Pre-emergence herbicidal action; conditions: 320 g/ha, visual scoring after about 3 weeks vs untreated controls, 100% = plants have died
Text: as §1, §2

[4] = system: Lolium multiflorum (LOLMU); experiment: Pre-emergence herbicidal action; conditions: 320 g/ha, visual scoring after about 3 weeks vs untreated controls, 100% = plants have died
Text: as §1, §2

[5] = system: Cyperus serotinus (CYPES); experiment: Pre-emergence herbicidal action; conditions: 320 g/ha, visual scoring after about 3 weeks vs untreated controls, 100% = plants have died
Text: as §1, §2

Veronica persica (VERPE) [6] = experiment: Pre-emergence herbicidal action; conditions: 320 g/ha, visual scoring after about 3 weeks vs untreated controls, 100% = plants have died
Text: as §1, §2

[7] = system: Pharbitis purpurea (PHBPU); experiment: Pre-emergence herbicidal action; conditions: 320 g/ha, visual scoring after about 3 weeks vs untreated controls, 100% = plants have died
Text: as §1, §2

Stellaria media (STEME) [8] = experiment: Post-emergence herbicidal action
Method: (§3) Seeds of monocotyledonous and dicotyledonous weeds and crop plants are placed in sandy loam in plastic or organic plant pots, covered with soil and cultivated in a greenhouse under controlled growth conditions. 2 to 3 weeks after sowing, the test plants are treated at the one-leaf stage. The compounds of the invention, formulated in the form of wettable powders (WP) or as emulsion concentrates (EC), are then sprayed onto the green parts of the plants as aqueous suspension or emulsion with addition of 0.5% additive at a water application rate of 600 l/ha (converted). After the test plants have been kept in the greenhouse under optimum growth conditions for about 3 weeks, the activity of the preparations is rated visually in comparison to untreated controls. For example, 100% activity=the plants have died, 0% activity=like control plants.
as §1
(§4) The compounds according to the invention were tested by the post-emergence and pre-emergence methods under the conditions described above for comparative purposes with the structurally closest compounds known from WO 2005/089551 A1 (D1).

Avena fatua (AVEFA) [9] = experiment: Post-emergence herbicidal action
Method: as §3, §1, §4

[10] = system: Abutilon theophrasti (ABUTH); experiment: Post-emergence herbicidal action
Method: as §3, §1, §4

Setaria viridis (SETVI) [11] = experiment: Post-emergence herbicidal action
Method: as §3, §1, §4

[12] = system: Matricaria inodora (MATIN); experiment: Post-emergence herbicidal action
Method: as §3, §1, §4

[13] = system: Lolium multiflorum (LOLMU); experiment: Post-emergence herbicidal action
Method: as §3, §1, §4

[14] = system: Alopecurus myosuroides (ALOMY); experiment: Post-emergence herbicidal action
Method: as §3, §1, §4

[15] = system: Polygonum convolvulus (POLCO); experiment: Post-emergence herbicidal action; conditions: 80 g of a.i./ha, comparative test
Method: as §3, §1, §4

[16] = system: Echinochloa crus-galli (ECHCG); experiment: Post-emergence herbicidal action
Method: as §3, §1, §4

[17] = system: harmful plants such as Alopecurus myosuroides, Amaranthus retroflexus, Avena fatua, Echinochloa crus-galli, Matricaria inodora, Pharbitis purpurea, Polygonum …; experiment: Pre-emergence herbicidal action, summary in text; conditions: pre-emergence treatment
Text: as §2
At the same time, some compounds according to the invention leave graminaceous crops such as barley, wheat, rye, millet/sorghum, maize, rice or sugarcane virtually undamaged when applied by the pre-emergence method, even at high active compound dosages. Some compounds are additionally also benign to dicotyledonous crops such as soya, cotton, oilseed rape or sugarbeet.

[18] = system: Amaranthus retroflexus (AMARE); experiment: Post-emergence herbicidal action; conditions: 320 g/ha, visual rating after about 3 weeks vs untreated controls, 100% = plants have died
Method: as §3, §1

Veronica persica (VERPE) [19] = experiment: Post-emergence herbicidal action; conditions: 320 g/ha, visual rating after about 3 weeks vs untreated controls, 100% = plants have died
Method: as §3, §1

[20] = system: Pharbitis purpurea (PHBPU); experiment: Post-emergence herbicidal action; conditions: 320 g/ha, visual rating after about 3 weeks vs untreated controls, 100% = plants have died
Method: as §3, §1

Viola tricolor (VIOTR) [21] = experiment: Post-emergence herbicidal action; conditions: 320 g/ha, visual rating after about 3 weeks vs untreated controls, 100% = plants have died
Method: as §3, §1

[22] = system: harmful plants such as Abutilon theophrasti, Alopecurus myosuroides, Amaranthus retroflexus, Avena fatua, Echinochloa crus-galli, Matricaria inodora, Pharbitis …; experiment: Post-emergence herbicidal action, summary in text; conditions: post-emergence treatment
Method: as §3
In this case, for example, in the post-emergence process, the compounds No. 1-001 and 111-001 have very good herbicidal activity (80% to 100% herbicidal action) against harmful plants such as Abutilon theophrasti, Alopecurus myosuroides, Amaranthus retroflexus, Avena fatua, Echinochloa crus-galli, Matricaria inodora, Pharbitis purpurea, Setaria viridis, Stellaria media, Veronica persica and Viola tricolor at an application rate of 0.32 kg of active substance or less per hectare. At the same time, some compounds according to the invention leave graminaceous crops such as barley, wheat, rye, millet/sorghum, maize, rice or sugarcane virtually undamaged when applied by the post-emergence method, even at high active compound dosages. Some substances are additionally also benign to dicotyledonous crops such as soya, cotton, oilseed rape or sugarbeet.

Stellaria media (STEME) [23] = experiment: Pre-emergence herbicidal action
Text: as §1, §2, §4

Setaria viridis (SETVI) [24] = experiment: Pre-emergence herbicidal action
Text: as §1, §2, §4

[25] = system: Matricaria inodora (MATIN); experiment: Pre-emergence herbicidal action
Text: as §1, §2, §4

[26] = system: Alopecurus myosuroides (ALOMY); experiment: Pre-emergence herbicidal action
Text: as §1, §2, §4

Viola tricolor (VIOTR) [27] = experiment: Pre-emergence herbicidal action
Text: as §1, §2, §4

[28] = system: Polygonum convolvulus (POLCO); experiment: Pre-emergence herbicidal action
Text: as §1, §2, §4

[29] = system: Echinochloa crus-galli (ECHCG); experiment: Pre-emergence herbicidal action
Text: as §1, §2, §4

[30] = 80 g of a.i./ha, comparative test
[31] = 320 g/ha, visual rating after about 3 weeks vs untreated controls, 100% = plants have died
[32] = 320 g/ha, visual scoring after about 3 weeks vs untreated controls, 100% = plants have died

## FC(F)(F)c1cnn(-c2cc(C3CC3)nc(Oc3ccnc(C(F)(F)F)c3)n2)c1 [Example I-001, 4-cyclopropyl-6-[4-(trifluoromethyl)-1H-pyrazol-1-yl]-2-{[2-(trifluoromethyl)pyridin-4-yl]oxy}pyrimidine]
Avena fatua (AVEFA) [1]
  Pre-emergence action AVEFA: 100%
[2]
  Pre-emergence action ABUTH: 90%
[3]
  Pre-emergence action AMARE: 90%
[4]
  Pre-emergence action LOLMU: 100%
[5]
  Pre-emergence action CYPES: 80%
Veronica persica (VERPE) [6]
  Pre-emergence action VERPE: 100%
[7]
  Pre-emergence action PHBPU: 100%
Stellaria media (STEME) [8]; [30]
  Herbicidal action against STEME: 90%
Stellaria media (STEME) [8]; [31]
  Post-emergence action STEME: 100%
Avena fatua (AVEFA) [9]; [30]
  Herbicidal action against AVEFA: 80%
Avena fatua (AVEFA) [9]; [31]
  Post-emergence action AVEFA: 90%
[10]; [30]
  Herbicidal action against ABUTH: 90%
[10]; [31]
  Post-emergence action ABUTH: 100%
Setaria viridis (SETVI) [11]; [30]
  Herbicidal action against SETVI: 90%
Setaria viridis (SETVI) [11]; [31]
  Post-emergence action SETVI: 100%
[12]; [30]
  Herbicidal action against MATIN: 90%
[12]; [31]
  Post-emergence action MATIN: 90%
[13]; [30]
  Herbicidal action against LOLMU: 90%
[13]; [31]
  Post-emergence action LOLMU: 100%
[14]; [30]
  Herbicidal action against ALOMY: 80%
[14]; [31]
  Post-emergence action ALOMY: 90%
[15]
  Herbicidal action against POLCO: 100%
[16]; [30]
  Herbicidal action against ECHCG: 90%
[16]; [31]
  Post-emergence action ECHCG: 90%
[17]
  herbicidal action against harmful plants (in words): good herbicidal action
[18]
  Post-emergence action AMARE: 90%
Veronica persica (VERPE) [19]
  Post-emergence action VERPE: 100%
[20]
  Post-emergence action PHBPU: 90%
Viola tricolor (VIOTR) [21]
  Post-emergence action VIOTR: 100%
[22]
  herbicidal action against harmful plants (in words): good herbicidal action
Stellaria media (STEME) [23]; [30]
  Herbicidal action against STEME: 100%
Stellaria media (STEME) [23]; [32]
  Pre-emergence action STEME: 100%
Setaria viridis (SETVI) [24]; [30]
  Herbicidal action against SETVI: 100%
Setaria viridis (SETVI) [24]; [32]
  Pre-emergence action SETVI: 100%
[25]; [30]
  Herbicidal action against MATIN: 100%
[25]; [32]
  Pre-emergence action MATIN: 100%
[26]; [30]
  Herbicidal action against ALOMY: 100%
[26]; [32]
  Pre-emergence action ALOMY: 100%
Viola tricolor (VIOTR) [27]; [30]
  Herbicidal action against VIOTR: 100%
Viola tricolor (VIOTR) [27]; [32]
  Pre-emergence action VIOTR: 100%
[28]; [30]
  Herbicidal action against POLCO: 100%
[28]; [32]
  Pre-emergence action POLCO: 100%
[29]; [30]
  Herbicidal action against ECHCG: 100%
[29]; [32]
  Pre-emergence action ECHCG: 100%

— patent US12509445B2, “Herbicidally active 4-cyclopropyl-6-[4-(trifluormethyl)pyrazol-1-yl)]pyrimidines” (Bayer Aktiengesellschaft, priority 2019, dated 2025)
